Measurements reported in ChEMBL document CHEMBL6109137, “Design, Synthesis, Evaluation, and SAR of 5-Phenylisoindoline Derivatives, a Potent Class of Small-Molecule Inhibitors Targeting the Programmed Cell Death-1/Programmed Cell Death-Ligand 1 (PD-1/PD-L1) Interaction” (J Med Chem, 2025).
pIC50: −log10 of the molar value. Activity calls are given as the source filed them. No cut-off for these calls is given here.

Experiments:
[1] = Toxicity in C57BL/6J mouse implanted with mouse MC38 cells assessed as brain weight ratio at 40 to 160 mg/kg, IG qd for 7 days; format: organism-based; details: in vivo, po, 168 h, dose 40-160 mg/kg, time 7 day
[2] = Toxicity in C57BL/6J mouse implanted with mouse MC38 cells assessed as change in brain index at 5 to 20 mg/kg, ip qd for 13 days; format: organism-based; details: in vivo, 312 h, dose 5-20 mg/kg, time 13 day
[3] = AUC (0 to infinity) in Sprague-Dawley rat at 1 mg/kg, iv measured for 24 hrs by LC-MS/MS analysis; format: ADME, organism-based; details: in vivo
[4] = Cmax in Sprague-Dawley rat at 10 mg/kg, ip measured for 24 hrs by LC-MS/MS analysis; format: ADME, organism-based; details: in vivo
MC-38 [5] = assay: Antitumor activity against mouse MC38 cells implanted in C57BL/6J mouse administered intraperitoneally once a day for 13 days; format: functional, cell-based; details: dose 5-20 mg/kg, route ip, time 13.0 day
[6] = Toxicity in C57BL/6J mouse implanted with mouse MC38 cells assessed as injury in kidney at 5 to 20 mg/kg, ip qd for 13 days by H and E staining based analysis; format: organism-based; details: in vivo, 312 h, dose 5-20 mg/kg, time 13 day
[7] = Toxicity in C57BL/6J mouse implanted with mouse MC38 cells assessed as injury in lung at 5 to 20 mg/kg, ip qd for 13 days by H and E staining based analysis; format: organism-based; details: in vivo, 312 h, dose 5-20 mg/kg, time 13 day
[8] = AUC (0 to infinity) in Sprague-Dawley rat at 20 mg/kg, po measured for 24 hrs by LC-MS/MS analysis; format: ADME, organism-based; details: in vivo
[9] = Toxicity in C57BL/6J mouse implanted with mouse MC38 cells assessed as change in RBC count at 40 to 160 mg/kg, IG qd for 7 days; format: organism-based; details: in vivo, po, 168 h, dose 40-160 mg/kg, time 7 day
[10] = AUC (0 to 24 hrs) in Sprague-Dawley rat at 10 mg/kg, ip measured for 24 hrs by LC-MS/MS analysis; format: ADME, organism-based; details: in vivo
[11] = Toxicity in C57BL/6J mouse implanted with mouse MC38 cells assessed as change in PCT count at 40 to 160 mg/kg, IG qd for 7 days; format: organism-based; details: in vivo, po, 168 h, dose 40-160 mg/kg, time 7 day
[12] = Toxicity in C57BL/6J mouse implanted with mouse MC38 cells assessed as change in heart index at 5 to 20 mg/kg, ip qd for 13 days; format: organism-based; details: in vivo, 312 h, dose 5-20 mg/kg, time 13 day
[13] = Toxicity in C57BL/6J mouse implanted with mouse MC38 cells assessed as change in body weight at 5 to 20 mg/kg, ip qd for 13 days; format: organism-based; details: in vivo, 312 h, dose 5-20 mg/kg, time 13 day
[14] = molecular target: Programmed cell death protein 1/Programmed cell death 1 ligand 1 (Homo sapiens, UniProt Q9NZQ7); assay: Inhibition of interaction of PD-1/PD-L1 (unknown origin) by HTRF analysis; format: protein-complex assay
Sequence of Programmed cell death protein 1/Programmed cell death 1 ligand 1 (Q15116 whole entry): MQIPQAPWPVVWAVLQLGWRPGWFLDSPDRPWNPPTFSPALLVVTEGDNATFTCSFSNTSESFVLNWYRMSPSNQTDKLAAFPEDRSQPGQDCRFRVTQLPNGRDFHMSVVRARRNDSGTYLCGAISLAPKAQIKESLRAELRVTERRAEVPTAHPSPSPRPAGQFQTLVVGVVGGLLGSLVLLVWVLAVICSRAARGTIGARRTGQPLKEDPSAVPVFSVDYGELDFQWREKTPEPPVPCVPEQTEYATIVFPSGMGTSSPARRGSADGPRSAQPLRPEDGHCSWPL
Sequence of Programmed cell death protein 1/Programmed cell death 1 ligand 1 (Q9NZQ7 whole entry): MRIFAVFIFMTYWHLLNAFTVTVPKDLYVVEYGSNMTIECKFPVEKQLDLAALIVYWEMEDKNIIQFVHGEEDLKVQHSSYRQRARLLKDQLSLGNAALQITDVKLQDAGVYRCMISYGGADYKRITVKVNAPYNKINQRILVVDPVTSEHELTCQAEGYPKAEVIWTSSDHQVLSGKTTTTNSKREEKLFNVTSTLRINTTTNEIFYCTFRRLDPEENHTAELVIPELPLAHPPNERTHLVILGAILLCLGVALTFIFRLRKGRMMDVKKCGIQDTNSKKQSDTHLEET

[15] = Toxicity in C57BL/6J mouse implanted with mouse MC38 cells assessed as change in PDW count at 40 to 160 mg/kg, IG qd for 7 days; format: organism-based; details: in vivo, po, 168 h, dose 40-160 mg/kg, time 7 day
[16] = Toxicity in C57BL/6J mouse implanted with mouse MC38 cells assessed as change in ALT level at 40 to 160 mg/kg, IG qd for 7 days; format: organism-based; details: in vivo, po, 168 h, dose 40-160 mg/kg, time 7 day
MC-38 [17] = assay: Antitumor activity against mouse MC38 cells implanted in C57BL/6J mouse assessed as tumor growth inhibition at 160 mg/kg, IG qd; format: functional, organism-based; details: time 7.0 day
[18] = Toxicity in C57BL/6J mouse implanted with mouse MC38 cells assessed as change in serum ALT level at 5 to 20 mg/kg, ip qd for 13 days; format: organism-based; details: in vivo, 312 h, dose 5-20 mg/kg, time 13 day
Mus musculus [19] = assay: Restoration of immune function in C57BL/6J mouse implanted with mouse MC38 cells assessed as increase in serum IL-2 level administered intraperitoneally once daily for 13 days by ELISA; format: functional, organism-based; details: dose 5-20 mg/kg, route ip, time 13.0 day
[20] = Half life in Sprague-Dawley rat at 20 mg/kg, po measured for 24 hrs by LC-MS/MS analysis; format: ADME, organism-based; details: in vivo
[21] = Half life in Sprague-Dawley rat at 10 mg/kg, ip measured for 24 hrs by LC-MS/MS analysis; format: ADME, organism-based; details: in vivo
[22] = Clearance in Sprague-Dawley rat at 10 mg/kg, ip measured for 24 hrs by LC-MS/MS analysis; format: ADME, organism-based; details: in vivo
[23] = Toxicity in C57BL/6J mouse implanted with mouse MC38 cells assessed as drug tolerance at 5 to 20 mg/kg, ip qd for 13 days; format: organism-based; details: in vivo, 312 h, dose 5-20 mg/kg, time 13 day
[24] = Toxicity in C57BL/6J mouse implanted with mouse MC38 cells assessed as animal mortality at 40 to 160 mg/kg, IG qd for 7 days; format: organism-based; details: in vivo, po, 168 h, dose 40-160 mg/kg, time 7 day
MC-38 [25] = assay: Inhibition of cell proliferation of mouse MC38 cells implanted in C57BL/6J mouse assessed as reduction in Ki67 level at 5 to 20 mg/kg, ip qd for 13 days by IHC analysis; format: functional, organism-based; details: dose 5-20 mg/kg, time 13.0 day
[26] = Toxicity in C57BL/6J mouse implanted with mouse MC38 cells assessed as change in kidney index at 5 to 20 mg/kg, ip qd for 13 days; format: organism-based; details: in vivo, 312 h, dose 5-20 mg/kg, time 13 day
[27] = Toxicity in C57BL/6J mouse implanted with mouse MC38 cells assessed as injury in heart at 5 to 20 mg/kg, ip qd for 13 days by H and E staining based analysis; format: organism-based; details: in vivo, 312 h, dose 5-20 mg/kg, time 13 day
[28] = Toxicity in C57BL/6J mouse implanted with mouse MC38 cells assessed as change in HCT count at 40 to 160 mg/kg, IG qd for 7 days; format: organism-based; details: in vivo, po, 168 h, dose 40-160 mg/kg, time 7 day
[29] = Toxicity in C57BL/6J mouse implanted with mouse MC38 cells assessed as change in excised body weight at 5 to 20 mg/kg, ip qd for 13 days; format: organism-based; details: in vivo, 312 h, dose 5-20 mg/kg, time 13 day
MC-38 [30] = assay: Antitumor activity against mouse MC38 cells implanted in C57BL/6J mouse assessed as increase in granzyme B level at 5 to 20 mg/kg, ip qd for 13 days by IHC analysis; format: functional, organism-based; details: dose 5-20 mg/kg, time 13.0 day
[31] = Toxicity in C57BL/6J mouse implanted with mouse MC38 cells assessed as change in lung index at 5 to 20 mg/kg, ip qd for 13 days; format: organism-based; details: in vivo, 312 h, dose 5-20 mg/kg, time 13 day
[32] = Cytotoxicity against human PBMC cells assessed as inhibition of cell viability by CCK8 assay; format: toxicity, cell-based
[33] = Tmax in Sprague-Dawley rat at 10 mg/kg, ip measured for 24 hrs by LC-MS/MS analysis; format: ADME, organism-based; details: in vivo
Mus musculus [34] = assay: Restoration of immune function in C57BL/6J mouse implanted with mouse MC38 cells assessed as increase in serum IL-6 level administered intraperitoneally once daily for 13 days by ELISA; format: functional, organism-based; details: dose 5-20 mg/kg, route ip, time 13.0 day
[35] = Drug uptake in mouse MC38 cells incubated for 48 hrs by LC-MS/MS analysis; format: ADME, cell-based; details: mc-38, 48 h, dose 1-10 µM
[36] = Cytotoxicity against human HaCaT cells measured after 48 hrs by MTT assay; format: toxicity, cell-based
MC-38 [37] = assay: Antitumor activity against mouse MC38 cells implanted in C57BL/6J mouse assessed as increase in infiltration of CD8+ T cells at 5 to 20 mg/kg, ip qd for 13 days by IHC analysis; format: functional, organism-based; details: dose 5-20 mg/kg, time 13.0 day
[38] = Toxicity in C57BL/6J mouse implanted with mouse MC38 cells assessed as lung weight ratio at 40 to 160 mg/kg, IG qd for 7 days; format: organism-based; details: in vivo, po, 168 h, dose 40-160 mg/kg, time 7 day

Structure (SMILES): C[C@H](N)C(=O)N1Cc2ccc(-c3cccc(-c4ccc5c(c4)OCCO5)c3Cl)cc2C1.Cl
- Activity [1]: Non-toxic
- Activity [2]: Non-toxic
- AUC(0-inf) [3]: 191 ng·h/mL
- Cmax [4]: 412 ng/mL
- Activity (MC-38 [5]): Dose-dependent-effect
- Activity [6]: Non-toxic
- Activity [7]: Non-toxic
- AUC(0-inf) [8]: 644 ng·h/mL
- Activity [9]: Non-toxic
- AUC(0-t) at 24 h [10]: 1010 ng·h/mL
- Activity [11]: Non-toxic
- Activity [12]: Non-toxic
- Activity [13]: Non-toxic
- pIC50 [14]: 8.32
- Activity [15]: Non-toxic
- Activity [16]: Non-toxic
- inhibition (MC-38 [17]): Time-dependent-effect
- Activity [18]: Non-toxic
- Activity (Mus musculus [19]): Dose-dependent-effect
- half-life [20]: 3.58 h
- half-life [21]: 4.02 h
- CL/F [22]: 103 mL/min/kg
- Activity [23]: Non-toxic
- Activity [24]: Non-toxic
- inhibition (MC-38 [25]): Active
- Activity [26]: Non-toxic
- Activity [27]: Non-toxic
- Activity [28]: Non-toxic
- Activity [29]: Non-toxic
- Activity (MC-38 [30]): Active
- Activity [31]: Non-toxic
- pIC50 [32]: < 5.30
- Tmax [33]: 0.42 h
- Activity (Mus musculus [34]): Dose-dependent-effect
- Drug uptake [35]: Dose-dependent-effect
- IC50 at 48 h [36]: > 100 µM
- Activity (MC-38 [37]): Active
- Activity [38]: Non-toxic
